Results on 1 compound are retold here after patent US20260306490A1, “PIM1 INHIBITOR FOR TREATING MYELOPROLIFERATIVE NEOPLASMS” (Sumitomo Pharma America, Inc., priority 2022, published 2026).

The structures appear in SMILES notation.

Holding throughout (format): cell-based
The subject of assay [1] is human erythroid progenitors (CFU-E, BFU-E). Put plainly: Colony forming cell assay, human erythroid progenitor (CFU-E, BFU-E) proliferation. Particulars: 336 h, single agent, 14 days, CFU-E and BFU-E. The method, then:
(§1) Clonogenic progenitors of human erythroid (CFU-E, BFU-E), granulocyte-monocyte (CFU-GM), and multipotential (CFU-GEMM) lineages were assessed in a semi-solid methylcellulose-based media formulation containing rhIL-3 (10 ng/mL), rhGM-SCF (10 ng/mL), rhSCF (50 ng/mL), and Epo (3 U/mL).
(§2) In addition, 5-FU was evaluated at 1.0, 0.1 and 0.01 μg/mL as a positive control for toxicity.
(§3) Normal human bone marrow light density cells (lot #0210901), derived from normal bone marrow, (Lonza, Maryland) and qualified at ReachBio, were stored at −152° C. until required for the assay. On the day of the experiment, the cells were thawed rapidly, diluted in 10 mL of Iscove's modified Dulbecco's medium containing 10% fetal bovine serum (IMDM+10% FBS) and washed by centrifugation (approximately 1500 r.p.m. for 10 minutes at room temperature). The supernatant was discarded and the cell pellets were resuspended in a known volume of IMDM+10% FBS. A cell count (3% glacial acetic acid) and viability assessment (trypan blue exclusion test) was performed for the bone marrow sample.
Clonogenic progenitors of human megakaryocyte (CFU-Mk) were assessed in a collagen-based media formulation containing rhIL-3 (10 ng/mL), rhIL-6 (10 ng/mL), and Tpo (50 ng/mL). Clonogenic progenitors of the human erythroid (CFU-E and BFU-E), myeloid (CFU-GM), and megakaryocyte (CFU-Mk) lineages were set up in the media formulations described above. Individually, the test compounds were added to the medium to give the final desired concentrations (10, 3.33, 1, 0.333, 0.1, 0.0333, 0.01 and 0.00333 μM). […]
Human myeloid and erythroid progenitor assays were initiated at 1.2×10^4 cells per culture (lot #0210921) and the human megakaryocyte assays were initiated at 1.2×10^5 cells per culture (lot #0210921). Following 14 days in culture, erythroid and myeloid colonies were assessed microscopically in situ and scored by trained personnel. […] The colonies were assessed microscopically and scored by trained personnel and divided into the following categories based on size: CFU-Mk (3-20), CFU-Mk (21-49), and CFU-Mk (≥50).
Statistical analysis: The mean±standard deviation of three replicate cultures was calculated for both erythroid and myeloid progenitors. […]
(§4) Erythroid (CFU-E and BFU-E) and myeloid (CFU-GM) colony enumeration was performed by trained personnel. In addition, the distribution of colony types as well as general colony and cellular morphology was analyzed. The variance in colony number detected in replicate cultures was representative of the historical coefficient of variation for colony enumeration using these types of assays. The number and distribution of colonies detected in the solvent control (0.1% DMSO for single agents) was no different from the standard control (containing no compound and no DMSO). […]

Assay [2] relates to human myeloid progenitors (CFU-GM). The assay can be described thus: Colony forming cell assay, human myeloid (granulocyte-monocyte, CFU-GM) progenitor proliferation. Particulars: single agent. Here is the method:
as §1, §2, §3
(§5) Clonogenic progenitors of human megakaryocyte (CFU-Mk) were assessed in a collagen-based media formulation containing rhIL-3 (10 ng/mL), rhIL-6 (10 ng/mL), and Tpo (50 ng/mL). Clonogenic progenitors of the human erythroid (CFU-E and BFU-E), myeloid (CFU-GM), and megakaryocyte (CFU-Mk) lineages were set up in the media formulations described above. Individually, the test compounds were added to the medium to give the final desired concentrations (10, 3.33, 1, 0.333, 0.1, 0.0333, 0.01 and 0.00333 μM). […] Solvent control cultures (containing no compound but 0.1% DMSO) as well as standard controls (containing no compound and no DMSO) were also initiated. Once introduced into the matrices, the tubes were vortexed to ensure an equal distribution throughout.
(§6) Human myeloid and erythroid progenitor assays were initiated at 1.2×10^4 cells per culture (lot #0210921) and the human megakaryocyte assays were initiated at 1.2×10^5 cells per culture (lot #0210921). Following 14 days in culture, erythroid and myeloid colonies were assessed microscopically in situ and scored by trained personnel. The colonies were divided into the following categories based on size and morphology: CFU-E, BFU-E, CFU-GM, and CFU-GEMM. The human megakaryocyte cultures were transferred from the 35 mm dishes to labeled glass slides, fixed with methanol/acetone fixative, and then stained with anti-human CD41 antibody and an alkaline phosphate detection system according to manufacturers' instructions. The colonies were assessed microscopically and scored by trained personnel and divided into the following categories based on size: CFU-Mk (3-20), CFU-Mk (21-49), and CFU-Mk (≥50).
(§7) Statistical analysis: The mean±standard deviation of three replicate cultures was calculated for both erythroid and myeloid progenitors. Two-tailed standard t-tests were performed to assess if there was a difference in the number of colonies generated between solvent control and treated cultures. Due to the potential subjectivity of colony enumeration, a p value of less than 0.01 is deemed significant. To calculate the concentration of 50% inhibition of colony growth (IC50) for each compound, a dose response curve was generated plotting the log of the compound concentration versus the percentage of control colony growth using GraphPad Prism 9 software.
as §4

The test system of assay [3] is human megakaryocyte progenitors (CFU-Mk). The assay can be described thus: Colony forming cell assay, human megakaryocyte progenitor (CFU-Mk) proliferation. Particulars: Homo sapiens; single agent; read-out: IC50, total CFU-Mk (megakaryocyte progenitor proliferation). The method, then: as §2, §3, §5, §6, §7
Other than the test compounds being combined, the only change from the method in Example 1 was a 0.2% DMSO solvent control instead of 0.1% DMSO. The results are provided in FIGS. 2A-4C (FIGS. 2A-2C are human megakaryocytes (CFU-MK), FIGS. 3A-3C are human erythroid (CFU-E, BFU-E), and FIGS. 4A-4C are human granulocyte-monocyte (CFU-GM).

With `CC(C)(O)[C@H]1CC[C@H](Nc2ccc3ncc(-c4cccc(C(F)(F)F)c4)n3n2)CC1` [Compound (1)], the IC50 in assay [1] was 4.25 µM; in assay [2] (Homo sapiens, 336 h, 14 days, CFU-GM), 1.31 µM; in assay [3] it was 1.56 µM. Moreover, the “concentrations at which myeloid progenitor proliferation was (significantly, additionally) inhibited” value in assay [2] (vs 0.1% DMSO solvent control, p<0.01) was 1.0 µM.
